Our source for the IC50 values is patent US10065941B2, “Aminotriazine derivative and pharmaceutical composition comprising the same” (Shionogi & Co., Ltd., priority 2013, dated 2018).

Each structure is given as a SMILES string.

This assay has as its target human P2X3 receptor (Homo sapiens (Human), UniProt P56373). Description: Evaluation of human P2X3 receptor inhibitory activity (Test Example 1). In kind it is cell-based. The following applies: C6BU-1 cell transfected with human P2X3 receptor gene, FLIPR 384. How it is done:
Stably expressing cell line (C6BU-1 cell transfected with human P2X3 receptor gene (GenBank accession number Y07683) was used. The cells were seeded in a 384-well PDL-coated microtiter plate at a concentration of 3000 cells/well and cultured in the medium (8.3% fetal bovine serum, 8.3% horse serum, and 1% antibiotic and antifungal in DMEM) for one day at 37° C. under 5% carbon dioxide atmosphere. The medium was replaced with 4 μM Fluo-3-AM solution (20 mM HEPES, 137 mM NaCl, 2.7 mM KCl, 0.9 mM MgCl2, 5.0 mM CaCl2, 5.6 mM D-glucose, 2.5 mM probenecid, 0.5% BSA, and 0.04% Pluronic F-127, pH 7.5) and incubated at 37° C. under 5% dioxide carbon atmosphere for one hour. The plate was washed with washing buffer (20 mM HEPES, 137 mM NaCl, 2.7 mM KCl, 0.9 mM MgCl2, 5.0 mM CaCl2, 5.6 mM D-glucose, 2.5 mM probenecid, pH7.5), and each well was added with 20 μL of the washing buffer. The plate was placed in High-Throughput Screening System FLIPR 384 (Molecular Device Co.). Measurement of fluorescence intensity by FLIPR 384 was started, and 20 μL of DMSO solutions containing different concentrations of the test compound as prepared by dilution with dilution buffer (20 mM HEPES, 137 mM NaCl, 2.7 mM KCl, 0.9 mM MgCl2, 5.0 mM CaCl2, 5.6 mM D-glucose, 2.5 mM probenecid, 0.1% Pluronic F-127, pH7.5) were dispensed to each well through the built-in automatic dispenser. Five minutes after, 150 nM ATP solution (25 μL) prepared by dilution with the dilution buffer was dispensed through the built-in automatic dispenser, and the measurement of fluorescence intensity was continued for 4 min. For each well, the specific maximum fluorescence intensity was calculated as the ratio of the maximum fluorescence intensity after addition of the ATP solution to the fluorescence intensity at the starting of the measurement. […] The specific maximum fluorescence intensity and IC50 were calculated using Spotfire (Science & Technology Systems, Inc.)

Chain of human P2X3 receptor (P56373 whole entry): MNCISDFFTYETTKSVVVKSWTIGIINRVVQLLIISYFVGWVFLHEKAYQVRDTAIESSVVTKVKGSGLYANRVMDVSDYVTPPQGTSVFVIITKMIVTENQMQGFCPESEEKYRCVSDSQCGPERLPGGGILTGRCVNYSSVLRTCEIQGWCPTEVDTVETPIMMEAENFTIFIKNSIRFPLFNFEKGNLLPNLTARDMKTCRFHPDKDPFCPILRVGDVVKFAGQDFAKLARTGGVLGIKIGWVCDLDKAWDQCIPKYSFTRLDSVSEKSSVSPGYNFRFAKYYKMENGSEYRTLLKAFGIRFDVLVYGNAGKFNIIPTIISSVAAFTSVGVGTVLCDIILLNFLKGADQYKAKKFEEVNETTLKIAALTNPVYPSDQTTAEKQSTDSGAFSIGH

Take `C[C@@H](Cn1c(=O)[nH]/c(=N\c2ccc(Oc3cnc(Cl)cn3)cc2)n(Cc2ccc(Cl)cc2)c1=O)C(=O)O` [Compound R-014]: the IC50 came out at 5 nM.
On to `COc1ccc(Oc2ccc(/N=c3\[nH]c(=O)n(CC(C)(C)C(=O)O)c(=O)n3Cc3ccc(Cl)cc3)cc2)nn1` [Compound R-190], for which inhibition was half-maximal at 9 nM (IC50).
`C[C@@H](Cn1c(=O)[nH]/c(=N\c2ccc(Oc3ccc4nccn4n3)cc2)n(Cc2ccc(Cl)cc2)c1=O)C(=O)O` [Compound R-231] registered an IC50 of 5 nM.
For `C=C(CO)Cn1c(=O)[nH]/c(=N\c2ccc(Oc3ccccn3)cc2)n(Cc2ccc(Cl)cc2)c1=O` [Compound R-254, 1-(4-chlorobenzyl)-3-(2-hydroxymethyl-2-propenyl)-6-[4-(2-pyridyloxy)phenylimino]-1,3,5-triazinane-2,4-dione] the value was 3 nM; for `CCOC(=O)[C@H]1C[C@H](n2c(=O)[nH]/c(=N\c3ccc(Oc4ncccc4F)cc3)n(Cc3ccc(Cl)cc3)c2=O)C1` [Compound I-061], 62 nM.
`Cc1ccc(Cn2c(=O)n([C@@H](C)[C@@H](C)C(=O)O)c(=O)[nH]/c2=N\c2ccc(Oc3ccccn3)cc2)cc1` [Compound I-195] came in with a half-inhibitory concentration (IC50) of 7 nM.
For `COC(=O)[C@@H](C)Cn1c(=O)[nH]/c(=N\c2ccc(N3CCCCC3)c(F)c2)n(Cc2ccc(Cl)cc2)c1=O` [Compound R-140], it took 37 nM to reach half-maximal inhibition (IC50).
For the compound `COC(=O)C(C)(C)Cn1c(=O)[nH]/c(=N\c2ccc(Oc3ncccc3C#N)cc2)n(Cc2ccc(Cl)cc2)c1=O` [Compound I-046], the midpoint of inhibition, the IC50, lay at 19 nM.
As to `Cc1cc(/N=c2\[nH]c(=O)n([C@@H](C)[C@@H](C)C(=O)O)c(=O)n2Cc2ccc(Cl)cc2)ccc1Oc1ccccn1` [Compound I-220], the IC50 came to 10 nM.
For the compound `CC(C)(Cn1c(=O)[nH]/c(=N\c2ccc(Oc3ccnc(Cl)c3)cc2)n(Cc2ccc(Cl)cc2)c1=O)C(=O)O` [Compound R-089], the IC50 stood at 7 nM.
On to `COC(=O)[C@@H](C)Cn1c(=O)[nH]/c(=N\c2ccc(Oc3ccc(OC(F)F)cn3)cc2)n(Cc2ccc(C)cc2)c1=O` [Compound I-132], for which the 50% inhibitory concentration (IC50) came out at 8 nM.
Turning to `C[C@@H](Cn1c(=O)[nH]/c(=N\c2ccc(Oc3nc(C(F)(F)F)ns3)cc2)n(Cc2ccc(Cl)cc2)c1=O)C(=O)O` [Compound R-145], the IC50 was found to be 11 nM.
The value for `Cc1cnc(Oc2ccc(/N=c3\[nH]c(=O)n([C@@H](C)[C@@H](C)C(=O)O)c(=O)n3Cc3ccc(Cl)cc3)cc2)s1` [Compound R-183] was 7 nM.
Take `COC(=O)CCn1c(=O)[nH]/c(=N\c2ccc(Oc3ccc(C(C)=O)cn3)cc2)n(Cc2ccc(Cl)cc2)c1=O` [Compound R-303]: the midpoint of inhibition, the IC50, lay at 3 nM.
Consider `CCOC(=O)[C@H]1C[C@@H](n2c(=O)[nH]/c(=N\c3ccc(Oc4ccccn4)cc3)n(Cc3ccc(C)cc3)c2=O)C1` [Compound I-181], for which half-maximal inhibition (IC50) was put at 5 nM.
The value for `Cc1cncc(Oc2ccc(/N=c3\[nH]c(=O)n(CC(C)(C)C(=O)O)c(=O)n3Cc3ccc(Cl)cc3)cc2)c1` [Compound R-194] was 13 nM.
Take `CCc1oc2ccc(/N=c3\[nH]c(=O)n(C[C@H](C)C(=O)OC)c(=O)n3Cc3ccc(C)cc3)cc2c1C` [Compound R-220]: the IC50 is 22 nM.
As for `CC1(C)OC[C@@H](Cn2c(=O)[nH]/c(=N\c3ccc(Oc4ccccn4)cc3)n(Cc3ccc(Cl)cc3)c2=O)O1` [Compound R-247], the midpoint of inhibition, the IC50, lay at 5 nM.
For `C[C@@H](Cn1c(=O)[nH]/c(=N\c2ccc(OC3CCC3)c(F)c2)n(Cc2ccc(Cl)cc2)c1=O)C(=O)O` [Compound R-076] the value was 13 nM; for `O=C(O)Cn1c(=O)[nH]/c(=N\c2ccc(Oc3ccc(F)cn3)cc2)n(Cc2ccc(Cl)cc2)c1=O` [Compound R-311], 428 nM; for `COC(=O)C[C@@H](C)n1c(=O)[nH]/c(=N\c2ccc(Oc3ccccn3)cc2)n(Cc2ccc(Cl)cc2)c1=O` [Compound I-157], 5 nM.
Regarding `CC(C)Oc1ccc(/N=c2\[nH]c(=O)n([C@H]3C[C@@H](C(=O)O)C3)c(=O)n2Cc2ccc(Cl)cc2)cc1Cl` [Compound R-022], inhibition was half-maximal at 12 nM (IC50).
`COC(=O)[C@H](C)[C@H](C)n1c(=O)[nH]/c(=N\c2ccc(Oc3ncc(C)s3)cc2)n(Cc2ccc(C)cc2)c1=O` [Compound R-213] returned a 50% inhibitory concentration (IC50) of 12 nM.
Regarding `COC(=O)[C@@H](C)Cn1c(=O)[nH]/c(=N\c2ccc(Oc3cccc(F)n3)cc2)n(Cc2ccc(CF)cc2)c1=O` [Compound I-209], 8 nM corresponded to half-maximal inhibition (IC50).
Compound `COC(=O)[C@@H](C)Cn1c(=O)[nH]/c(=N\c2ccc(Oc3cnccn3)c(C)c2)n(Cc2ccc(Cl)cc2)c1=O` [Compound R-111] returned a half-maximal inhibitory concentration (IC50) of 5 nM.
In turn, `CC(=O)c1ccc(Oc2ccc(/N=c3\[nH]c(=O)n(CCC(=O)O)c(=O)n3Cc3ccc(Cl)cc3)cc2)nc1` [Compound R-305] displayed an IC50 of 7 nM.
`C[C@@H](Cn1c(=O)[nH]/c(=N\c2ccc(Oc3cccc(F)n3)cc2)n(Cc2ccc(C(F)F)cc2)c1=O)C(=O)O` [Compound I-168] gave a concentration for half-maximal inhibition (IC50) of 12 nM.
For `COCc1ccc(Oc2ccc(/N=c3\[nH]c(=O)n(C[C@H](C)C(=O)OC)c(=O)n3Cc3ccc(Cl)cc3)cc2)nc1` [Compound I-247] the value was 6 nM.
Compound `COC(=O)[C@@H](C)Cn1c(=O)[nH]/c(=N\c2ccc(Oc3ccnc(F)c3)cc2)n(Cc2ccc(C)cc2)c1=O` [Compound R-221] had a half-inhibitory concentration (IC50) of 5 nM.
The compound `COC(=O)C(C)(C)Cn1c(=O)[nH]/c(=N\c2ccc(O[C@H](C)C(F)(F)F)c(F)c2)n(Cc2ccc(Cl)cc2)c1=O` [Compound R-091] displayed a half-maximal inhibitory concentration (IC50) of 108 nM.
Take `COC(=O)[C@@H](C)Cn1c(=O)[nH]/c(=N\c2ccc(Oc3cncc(Cl)c3)cc2)n(Cc2ccc(Cl)cc2)c1=O` [Compound R-079]: 11 nM corresponded to half-maximal inhibition (IC50).
As for `COC(=O)[C@@H](C)Cn1c(=O)[nH]/c(=N\c2ccc(Oc3ccnc(C#N)c3)cc2)n(Cc2ccc(Cl)cc2)c1=O` [Compound R-099], the concentration for half-maximal inhibition (IC50) is 4 nM.
Regarding `O=C(O)C1(Cn2c(=O)[nH]/c(=N\c3ccc(Oc4ccccn4)cc3)n(Cc3ccc(Cl)cc3)c2=O)CC1` [Compound I-193], the midpoint of inhibition, the IC50, lay at 8 nM.
In the case of `COC(=O)C(C)(C)Cn1c(=O)[nH]/c(=N\c2ccc(Oc3cc(C(F)(F)F)ccn3)cc2)n(Cc2ccc(Cl)cc2)c1=O` [Compound I-085], the concentration for half-maximal inhibition (IC50) turned out to be 225 nM.
`C[C@@H](Cn1c(=O)[nH]/c(=N\c2ccc(Oc3ncccc3OC(F)F)cc2)n(Cc2ccc(Cl)cc2)c1=O)C(=O)O` [Compound I-044]: the IC50 turned out to be 26 nM.
`COC(=O)C[C@@H](C)n1c(=O)[nH]/c(=N\c2ccc(Oc3ncccc3F)cc2)n(Cc2ccc(C)cc2)c1=O` [Compound I-188] gave an IC50 of 7 nM.
Consider `COC(=O)[C@H](Cn1c(=O)[nH]/c(=N\c2ccc(Oc3ncccc3F)cc2)n(Cc2ccc(Cl)cc2)c1=O)OC` [Compound I-099], for which the IC50 is 6 nM.
In the case of `COC(=O)[C@H](C)[C@H](C)n1c(=O)[nH]/c(=N\c2ccc(Oc3ccc(F)cn3)cc2)n(Cc2ccc(C)cc2)c1=O` [Compound I-103], the IC50 was 7 nM.
`Cc1cnc(Oc2ccc(/N=c3\[nH]c(=O)n(CC(C)(C)C(=O)O)c(=O)n3Cc3ccc(Cl)cc3)cc2)s1` [Compound R-153] yielded an IC50 of 8 nM.
`C[C@@H](Cn1c(=O)[nH]/c(=N\c2ccc(Oc3ncns3)cc2)n(Cc2ccc(Cl)cc2)c1=O)C(=O)O` [Compound R-195] displayed an IC50 of 9 nM.
For `COCc1cccc(Oc2ccc(/N=c3\[nH]c(=O)n(C[C@H](C)C(=O)OC)c(=O)n3Cc3ccc(C)cc3)cc2)n1` [Compound I-250], the half-maximal inhibitory concentration (IC50) came out at 31 nM.
As for `O=c1[nH]/c(=N\c2ccc(Oc3ncccc3F)cc2)n(Cc2ccc(Cl)cc2)c(=O)n1CC1(CO)COC1` [Compound R-083], 7 nM corresponded to half-maximal inhibition (IC50).
In turn, `COC(=O)[C@@H](C)Cn1c(=O)[nH]/c(=N\c2ccc(Oc3cccc(CO)n3)cc2)n(Cc2ccc(Cl)cc2)c1=O` [Compound I-245] showed a half-maximal inhibitory concentration (IC50) of 14 nM.
Compound `COC(=O)[C@@H](C)Cn1c(=O)[nH]/c(=N\c2ccc(O[C@H](C)C(F)(F)F)c(C)c2)n(Cc2ccc(Cl)cc2)c1=O` [Compound R-097] showed a half-inhibitory concentration (IC50) of 212 nM.
The compound `CC(C)(Cn1c(=O)[nH]/c(=N\c2ccc(Oc3ncccn3)cc2)n(Cc2ccc(Cl)cc2)c1=O)C(=O)O` [Compound R-060] yielded an IC50 of 16 nM.
The compound `COC(=O)[C@@H](C)Cn1c(=O)[nH]/c(=N\c2ccc(Oc3ccc(CF)cn3)cc2)n(Cc2ccc(Cl)cc2)c1=O` [Compound I-238] yielded an IC50 of 5 nM.
For the compound `O=c1[nH]/c(=N\c2ccc(Oc3ccccn3)cc2)n(Cc2ccc(Cl)cc2)c(=O)n1CCCO` [Compound R-251, 1-(4-chlorobenzyl)-3-(3-hydroxypropyl)-6-[4-(2-pyridyloxy)phenylimino]-1,3,5-triazinane-2,4-dione], the IC50 is 5 nM.
